These results are taken from the pKa sets of Baltruschat and Czodrowski (2020).

The conditions of one data set: acidic group.
`CC(=O)Nc1ccc(S(=O)(=O)Nc2nccc(C)n2)cc1` had a pKa of 5.46. `Cc1cc(C)cc(C(=O)O)c1` displayed a pKa of 4.3. Still for that read-out and setting: the figure for `CCCCCCP(=O)(O)CCCCCC` is 3.24; for `O/N=C(/NO)c1ccccc1` it is 10.7. In the case of `Cn1cnc2nc([O-])[nH]c(=S)c21`, the pKa was 12.1. Compound `COC(=O)C[C@@H]1[C@@H](C(=O)O)[NH2+]C[C@H]1C(C)O` (stereo partly drawn) registered a pKa of 2.4. The same measure, in the same setting: the figure for `Cc1ccc2[nH]nnc2c1` is 8.9; for `CC(C)(C)OO` it is 12.8; for `Cc1cc(O)[nH+]c2c1CCO2` it is 2.42. On the same count and under the same terms, the figure for `OB(O)Cc1ccccc1` is 9.12. The same measure, in the same setting: the figure for `Clc1ccc2[nH]nnc2c1` is 7.7.

Turning to `Nc1cc(N)c2cccnc2c1O`, the pKa was 10.8. Still for that read-out and setting: the figure for `[NH3+]CCCC(=O)O` is 4.06; for `O=C(O)/C=C\SC1CCCCC1` it is 4.95; for `O=C(O)C(c1ccc(-c2ccccc2)cc1)C1(O)CCCC1` (stereo not drawn) it is 3.65. On to `CCCC[Se](=O)O`, for which the pKa was determined as 5.29. Take `OC(O)c1ccccn1`: the pKa is 12.8.

`O=P([O-])([O-])C([NH2+]Cc1ccncc1)c1ccccc1O` (stereo not drawn) returned a pKa of 10.2. `Nn1cnnc1`: the pKa worked out at 11.8. The same measure, in the same setting: the figure for `COc1cc(S(C)=O)ccc1-c1nc2nnccc2[nH]1` (stereo not drawn) is 8.71.

`O/N=C1C=C/C(=N\O)c2cccnc2/1` showed a pKa of 10.

`COc1cccc2c1-c1c(O)cccc1-2`: the pKa was determined as 9.15. Still for that read-out and setting: the figure for `CCCCCCCCCC(=O)O` is 4.89; for `Cc1ccc(S(=O)(=O)N[C@@H](CC(N)=O)C(=O)[O-])cc1` it is 11.4.

In turn, `CCCc1c(-c2ccccc2)nn(-c2ccccc2)c1O` displayed a pKa of 7. Still for that read-out and setting: the figure for `O=C(O)c1ccc(Br)c([N+](=O)[O-])c1` is 3.24; for `O=C(NO)c1ccccc1` it is 8.71. In turn, `CNc1ncnc2nc[nH]c12` gave a pKa of 10. The compound `Cc1ccccc1O` had a pKa of 10.2.

As to `C[S+](C)CC(=O)c1ccccc1`, the pKa is 8.6. Compound `Cc1cccc(C(=O)[O-])c1O` came in with a pKa of 14.4. `O=[PH](O)C([NH2+]Cc1cccc[nH+]1)c1ccccc1O` (stereo not drawn) had a pKa of 2.4.

On to `CN1C(=O)C(C)(C)NC1=S`, for which the pKa amounted to 10.8. On the same count and under the same terms, the figure for `Nc1ccc(C(=O)[O-])c2ncccc12` is 12.6; for `Oc1ccc(F)cc1CN1CCOCC1` it is 10.5. Turning to `CC(=O)NCc1cc(C)cc(CNC(C)=O)c1O`, the pKa was 9. `CC(C)(C)c1ccc2c(c1)C(=O)NC2=O` registered a pKa of 10.2.

With `COC(=O)/C=C(\O)c1ccncc1`, the pKa came out at 7.51. Same read-out and setting: the figure for `O=C(O)[C@@H]1C[C@@H]1c1ccccc1` is 4.82; for `CC(=O)NC(CS)C(=O)[O-]` (stereo not drawn) it is 9.62; for `Cc1ncsc1C(=O)O` it is 3.54. Still for that read-out and setting: the figure for `C[NH+](C)CCNC(=O)/C=N/O` is 8.17; for `Brc1cccc(-c2nnn[nH]2)c1` it is 3.82.

In turn, `COc1cc(S(C)=O)ccc1-c1nc2nccnc2[nH]1` (stereo not drawn) came in with a pKa of 8.94. Still for that read-out and setting: the figure for `Cc1cc(C[NH3+])c(O)c(C[NH3+])c1` is 7; for `[NH3+][C@@H](Cc1[nH+]c[nH]c1I)C(=O)O` it is 1.65. Still for that read-out and setting: the figure for `O=[N+]([O-])c1ccc(/C=N/O)cc1` is 10; for `Oc1cc(Cl)cc(Cl)c1` it is 8.07; for `CNC(=O)/C=C\C(=O)O` it is 3.98. The same measure, in the same setting: the figure for `O=Cc1cc(Br)ccc1O` is 7.4.

As to `O=C(O)CCCc1c[nH]c2ccccc12`, the pKa worked out at 4.82. On the same count and under the same terms, the figure for `CN1c2ccccc2Nc2c(O)cccc21` is 9.26; for `O=CNO` it is 8.77. The same measure, in the same setting: the figure for `CCSC(C)O` (stereo not drawn) is 14.3.

Still in this data set, the particulars now being: basic group.
Take `CC(=O)Nc1ccc(S(=O)(=O)Nc2nccc(C)n2)cc1`: the pKa was found to be 0.9. Same read-out and setting: the figure for `Nc1c(Cl)cc([N+](=O)[O-])cc1Cl` is -2.98.

`C[C@@H]1CC[C@@H]2CC[C@H](C)N21`: the pKa was 10.2. On the same count and under the same terms, the figure for `CC(C)(C)NCCO` is 10.1; for `O/N=C(/NO)c1ccccc1` it is 3.8; for `c1cc(C2CCCN2)nc(C2CCC[NH2+]2)c1` (stereo not drawn) it is 9.46. Same read-out and setting: the figure for `NCC(=O)CN` is 8.32.

On to `CN(C)c1cc[n+](C)c([O-])n1`, for which the pKa is 4.2. Consider `Cn1c[nH+]c2cccc(N)c21`, for which the pKa is 2.36. `Cc1ccnc([O-])n1` had a pKa of 9.8.

Consider `O=[N+]([O-])c1ccc(C2NCCS2)cc1` (stereo not drawn), for which the pKa was determined as 4.55. Take `COc1nc2ccccc2[nH]1`: the pKa is 3.75.

As for `CC(C)(C)NC[C@H](O)COc1nsnc1N1CCOCC1`, the pKa amounted to 9.7. Still for that read-out and setting: the figure for `Cc1nn(C)c(C)c1C` is 4.48. Still for that read-out and setting: the figure for `CNc1ccc[n+](O)c1` is -2.42; for `Nc1cc(N)c2cccnc2c1O` it is 6.96. The same measure, in the same setting: the figure for `NCC[S-]` is 10.7; for `CN(C)CCN` it is 9.53; for `CCOC(=O)c1cnc(N)s1` it is 3.04.

`NC(Cc1ccncc1)C(=O)[O-]` (stereo not drawn) displayed a pKa of 9.22. In turn, `Cc1cc([S-])[nH+]c([S-])n1` gave a pKa of 6.87. The compound `O=[N+](O)C1=CC=CC1` had a pKa of 3.25.

Regarding `N[C@@H]1CCCC[C@@H]1O`, the pKa came out at 9.72. Still for that read-out and setting: the figure for `NNC(=O)CC([NH2+]CCO)C(=O)[O-]` (stereo not drawn) is 2.13; for `Nc1ccc(S(=O)(=O)Nc2ccc[nH+]c2)cc1` it is 1.59. As for `CCCCNc1nnc(-c2ccccc2)cc1C`, the pKa is 6.1. `Cc1ccccc1/C(=N\CCC[NH+](C)C)c1ccccc1Cl` showed a pKa of 3.37.

Compound `Nc1nc(N)nc([O-])n1` registered a pKa of 9.4. The compound `CCNNCC` came in with a pKa of 7.66. Compound `Oc1ccc2c(c1)Nc1ccccc1N2` showed a pKa of 1.8. Turning to `Nc1ccc(S(=O)(=O)Nc2cnccn2)cc1`, the pKa stood at 1.77.

For the compound `Cc1nc(C(=O)[O-])cs1`, the pKa turned out to be 3.9. With `CCN(CC)CCCNS(=O)(=O)c1ccc(OC)c(OC)c1OC`, the pKa came out at 9.54.

Consider `CCc1ccnc2c1ccc1c(CC)ccnc12`, for which the pKa came out at 5.6. Still for that read-out and setting: the figure for `Nn1cnnc1` is 2.53; for `Cc1cc(Cl)n(C)c2nc3ccccc3c1-2` it is 7.45; for `COc1cc(S(C)=O)ccc1-c1nc2nnccc2[nH]1` (stereo not drawn) it is 3.63. Consider `O/N=C1C=C/C(=N\O)c2cccnc2/1`, for which the pKa worked out at 3.7. On the same count and under the same terms, the figure for `CC(C)NCCc1ccc([O-])cc1` is 10.8. Compound `O=[N+]([O-])c1cccc2nccc(NCCCO)c12` yielded a pKa of 7.06. The compound `CC(N)CC#N` (stereo not drawn) returned a pKa of 7.85. Regarding `CC(CN1CCCC(C)(C)C1)Nc1ccccn1` (stereo not drawn), the pKa is 9.23. The same measure, in the same setting: the figure for `C[C@H](O)C(=O)C1=Nc2c([O-])nc(N)nc2NC1` is 10.1; for `Nc1ccccc1F` it is 2.96; for `N/C(=N\O)C(N)Cc1ccccc1` (stereo not drawn) it is 7.06.

In turn, `Nc1ccc(Cc2ccc([NH3+])cc2)cc1` displayed a pKa of 4. The same measure, in the same setting: the figure for `Cc1ccccc1/C(=N\CCCN(C)C)c1ccccc1Cl` is 8.95; for `C[n+]1ccccc1-c1ccccn1` it is 0.31; for `CNc1ncnc2nc[nH]c12` it is 4.31.

Regarding `CCN(CC)CC#N`, the pKa is 4.18. This pKa and that of the compound before are within 0.2 log units of each other. Consider `Cn1cnc2cncnc21`, for which the pKa was 2.42. In turn, `Nc1ccc(C(=O)[O-])c2ncccc12` had a pKa of 8.46. The compound `O=[N+]([O-])c1ccncc1` came in with a pKa of 1.86. The same measure, in the same setting: the figure for `CN1C(=O)N(CCN2CCOCC2)C(=O)C(C)(C2=CCCCC2)C1=O` (stereo not drawn) is 5.75.

As for `Oc1ccc(F)cc1CN1CCOCC1`, the pKa was 6.78. On the same count and under the same terms, the figure for `Cc1ccc(C)c(C(=N)c2ccccc2)c1` is 6.79. Same read-out and setting: the figure for `CNC(C)Cc1ccccc1` (stereo not drawn) is 9.87; for `C[N-]C(=O)Oc1ccc2c(c1)[C@@]1(C)CCN(C)[C@H]1N2C` it is 12.2; for `CCc1cc(Cl)c(OC)c(C(=O)NC[C@H]2CCCN2CC)c1[O-]` it is 9.77. With `CC[NH+](CCO)c1ccc(N)cc1`, the pKa amounted to 3.04. Turning to `CCN(CC)CCCC(C)=O`, the pKa was determined as 10.1. Take `c1coc(CNc2ncnc3[nH]ncc23)c1`: the pKa was 4.01. On to `N[C@H]1C[C@@H]1[NH3+]`, for which the pKa came out at 5.9.

As to `O=Cc1ccc(-c2ncc(-c3ccccc3)o2)cc1`, the pKa was found to be 0.02. `CCN(CC)c1ccccc1` displayed a pKa of 6.6. Take `NCCCCBr`: the pKa stood at 10. Compound `CC(=O)N(C)c1cccnc1` returned a pKa of 3.52. Turning to `Nc1ccc([I+]c2ccccc2)cc1`, the pKa amounted to 1.66. On to `Cc1cccc(CO)n1`, for which the pKa was 5.2.

On to `CN1C2=CCCC1CCC2` (stereo not drawn), for which the pKa turned out to be 8.8. In the case of `C[Si](C)(C)c1cccc(N)c1`, the pKa is 4.64.

In turn, `CNCC(=O)NCCc1c[nH]cn1` yielded a pKa of 8.31. The compound `CCC(=O)OCCN(C)C` came in with a pKa of 8.29. `NCC/C(N)=N/O` showed a pKa of 9.15. `CC[NH+](CC)CCNc1nc(C)cc(N)n1` came in with a pKa of 6.97. `CN1CCC[C@H]1c1cccnc1`: the pKa was 7.85.

In the case of `Fc1ccc2[nH]cnc2c1`, the pKa was 5.11. On the same count and under the same terms, the figure for `C=O` is 1.15. As for `[S-]c1ccncn1`, the pKa was 6.7.

Regarding `COc1ccc2c(c1OC(C)=O)[C@]13CCN(C)[C@H](C2)[C@@H]1CC[C@H](OC)C3`, the pKa was 9.31. As to `O=C([O-])/C=C\c1c[nH]cn1`, the pKa amounted to 6.7.

On to `CN1CC=CC1c1cccnc1` (stereo not drawn), for which the pKa was determined as 7.04. The same measure, in the same setting: the figure for `Cc1ccccc1N(C)C` is 6.

In turn, `CCN(C)CCOCCN(C)C` came in with a pKa of 9.65. The same measure, in the same setting: the figure for `[O-]c1nncc2ccccc12` is 12; for `CC(C)[NH2+]CCN` it is 7.7. The compound `N#CCC(N)c1ccccc1` (stereo not drawn) registered a pKa of 6.7. `NCc1ccc(C(=O)[O-])cc1` displayed a pKa of 9.64. Consider `CCN(CC)CC(=O)Nc1ccc(C)cc1`, for which the pKa was found to be 8.13. `NC(=O)CCCc1ccncc1` displayed a pKa of 5.64. On the same count and under the same terms, the figure for `CC(C)CNc1ccccc1` is 4.84. In turn, `CCC(=O)C(c1ccccc1)(c1ccccc1)[C@@H](C)CN(C)C` returned a pKa of 8.07. In turn, `CN(C)CCN(C)CC[NH+](C)C` had a pKa of 8.63. The same measure, in the same setting: the figure for `CC(=O)Nc1ccc(S(=O)(=O)Nc2ccccn2)cc1` is 2.03.

As a reminder, the pKa is the pH at which an ionisable group is half protonated. A high value points to a weaker acid or stronger base.
